According to patent US20090217396A1, “Inflammation models in neurodegenerative and arthritic disorders” (priority 2004, published 2009):
Entries after “also recorded” stand apart in the source; their conditions may differ.

Key:
293HGLVP/CrePr cells = assay: RU486-induced CrePr activation of transfected IL-1β^XAT; assay type: cell-based, human
Experimental: Neurobiol Aging 23:977-84] and the expression of IL-1β and lacZ was evaluated following RU486 (10^-7M) administration.
Mol Ther 8: 790-95]. […] Please refer to FIG. 3 for summary of the experiment.

[1] = tested on: primary rat endothelial cell cultures; assay: Regulation of inflammation-related genes by IL-1β with or without indomethacin in endothelial cells; assay type: cell-based
Experimental: The effects of IL-1β were evaluated in vitro utilizing primary rat endothelial cell cultures as a representative rodent cell type. In this experiment, murine IL-1β (10 ng/mL) was administered exogenously to cultured primary cells, and subsequently examined the regulation of several inflammation-related genes at the transcript level over the course of 72 hours. These molecules include (A) the inducible isoform of cyclooxygenase (COX-2), intercellular adhesion molecule-1 (ICAM-1) and monocyte chemoattractant protein-1 (MCP-1), as well as (B) the […]. Panel (C) depicts enzyme activity levels of MMP-2 and MMP-9 as evaluated by zymography.
The regulation of pro-collagen IV was also included in the study as control (not an inflammatory gene)—Panel B.
Mol Ther 8: 790-95], rat endothelial cells were employed as a representative rodent model to investigate the effects of IL-1β on the regulation of ICAM-1, MCP-1, MMP-2 and MMP-9 at the transcriptional level (mRNA) as well as the enzyme activity level (zymography).
Non-steroidal anti-inflammatory drugs (NSAIDS) are inhibitors of cyclooxygenase, a rate-limiting enzyme in the production of prostaglandins. Indomethacin, a prototype NSAID often employed in laboratory studies as well as in the hospital setting, has been evaluated for the potential to modulate the inflammatory response elicited by pro-inflammatory cytokines, such as IL-1β. To this end, rodent cells were utilized as a model to study the interaction between IL-1β, and indomethacin in vitro [Kyrkanides S, et al. (2000).

C57BL/6 mice = details: morphine intraperitoneal 30 min prior to formalin injection
adult mice = assay: IL-1β injection into the cisterna magna: CGRP and GFAP IHC; assay type: in vivo, mouse; details: 10 ng in 2 μl into cisterna magna
Experimental: FIG. 51 whose IL-1β injection into the cisterna magna induces neuronal excitation and astrocyte activation. Recombinant IL-1β was injected into the cisterna magna of adult mice (10 ng in 2 μl of aqueous solution). Neuronal excitation was evaluated by CGRP and astrocyte activation by GFAP IHC. (A) The saline-injected mouse is characterized by lack of CGRP expression at the main sensory nucleus. […] GFAP immunohistochemistry in (C) control and (D) experimental mice.

[2] = INDO + IL-1β simultaneously vs IL-1β alone (FIG. 7)
[3] = murine IL-1β 10 ng/mL, over 72 hours (FIG. 6)
[4] = recombinant IL-1β alone (FIG. 7)

Molecule: CC#C[C@]1(O)CC[C@H]2[C@@H]3CCC4=CC(=O)CCC4=C3[C@@H](c3ccc(N(C)C)cc3)C[C@@]21C [RU486, mifepristone]
- IL-1β and lacZ mRNA (RT-PCR) (293HGLVP/CrePr cells; RU486 10^-7M, IL-1β^XAT transiently transfected): up-regulation
- secreted IL-1β protein in supernatant media (ELISA for human IL-1β) (293HGLVP/CrePr cells; RU486-treated cells): significantly higher levels
- IL-1β^XAT DNA recombination (293HGLVP/CrePr cells; RU486 administration following IL-1β^XAT transfection): DNA excisional recombination
- number of X-gal positive cells (β-galactosidase reporter) (293HGLVP/CrePr cells; RU486 in culture media vs naïve cells): significant increase

Molecule: COc1ccc2c(c1)c(CC(=O)O)c(C)n2C(=O)c1ccc(Cl)cc1 [indomethacin]
- ICAM-1, MCP-1 and MMP-9 transcript levels [1, 2]: further increased
- collagenase activity of MMP-2 and MMP-9 [1, 2]: further increased
- expression of inflammatory mediators induced by IL-1β ([1]; indomethacin with IL-1β, rodent cells in vitro (FIG. 7)): further exacerbated

Molecule: CN1CC[C@]23c4c5ccc(O)c4O[C@H]2[C@@H](O)C=C[C@H]3[C@H]1C5 [morphine]
- orofacial grooming in formalin-challenged mice (C57BL/6 mice): normalized; also recorded: attenuation of orofacial grooming in formalin-challenged mice to near normal levels

B1: IL-1β: recombinant IL-1β cytokine administered exogenously to cells or injected into the cisterna magna (protein, UniProt P10749 118-269, looked up)
Interleukin-1 beta: VPIRQLHYRLRDEQQKSLVLSDPYELKALHLNGQNINQQVIFSMSFVQGEPSNDKIPVALGLKGKNLYLSCVMKDGTPTLQLESVDPKQYPKKKMEKRFVFNKIEVKSKVEFESAEFPNWYISTSQAEHKPVFLGNNSGQDIIDFTMESVSS
- MMP-2 enzyme activity (zymography) [1, 3]: increased with time
- mRNA levels of MMP-2 [1, 3]: not altered
- synthesis of COX-2, MCP-1, ICAM-1 and MMP-9 (mRNA) [1, 3]: upregulated
- enzyme activity of MMP-2 and MMP-9 (zymography) [1, 4]: upregulated
- transcriptional expression of ICAM-1, MCP-1 and MMP-9 (RT-PCR) [1, 4]: induced
- astrocyte activation (GFAP IHC) in brain stem (adult mice): activation of astrocytes
- CGRP expression at main sensory nucleus (neuronal excitation) (adult mice; vs saline): pronounced CGRP immunoreactivity
